Measured values: patent US6500841B1, “Inhibitors of farnesyl-protein transferase” (Merck & Co., Inc., priority 1994, dated 2002)

Experiments:
[1] = target: Farnesyl-protein transferase (FTase) (UniProt P49354+P49356); test: In vitro inhibition of Ras farnesyl transferase; format: biochemical; conditions: Ras-CVLS at 3.5 μM, 0.25 μM [3H]FPP; partially purified bovine or recombinant human enzyme; concentration giving 50% inhibition of FTase; read-out: Inhibition of RAS farnesylation, IC50
Description: Farnesyl-protein transferase (FTase) from bovine brain was chromatographed on DEAE-Sephacel (Pharmacia, 0-0.8 M NaCl gradient elution), N-octyl agarose (Sigma, 0-0.6 M NaCl gradient elution), and a mono Q HPLC column (Pharmacia, 0-0.3 M NaCl gradient). Ras-CVLS at 3.5 μM, 0.25 μM [^3H]FPP, and the indicated compounds were incubated with either a partially purified bovine enzyme preparation or a recombinant human enzyme preparation. The recombinant human enzyme was prepared as described in Omer, C. A., Kral, A. M., Diehl, R. E., Prendergast, G. C., Powers, S., Allen, C. M., Gibbs, J. B. and Kohl, N. E. (1993) Biochemistry 32:5167-5176. The Frase data presented below in Table 1 reflects the ability of the test compound to inhibit RAS farnesylation in vitro, as described in Pompliano, et al., Biochemistry 31, 3800 (1992).

[2] = test system: Ras farnesylation in the v-ras cell line (viral Ha-ras p21); test: cells; format: cell-based; conditions: v-ras cell line expressing viral Ha-ras p21; <1 = >50% inhibition at a 1 μM concentration
Description: The cell line used in this assay was the v-ras line, which expressed viral Ha-ras p21. The assay was performed essentially as described in DeClue, J. E. et. al., Cancer Research 51, 712-717, (1991). Cells in 10 cm dishes at 50-75% confluency were treated with the test compound (final concentration of solvent, methanol or dimethyl sulfoxide, was 0.1%). After 4 hours at 37° C., the cells were labelled in 3 ml methionine-free DMEM supplemeted with 10% regular DMEM, 2% fetal bovine serum and 400 μCi[^35S]methionine (1000 Ci/mmol). After an additional 20 hours, the cells were lysed in 1 ml lysis buffer (1% NP40/20 mM HEPES, pH 7.5/5 mM MgCl2/1 mM DTT/10 μg/ml aprotinen/2 μg/ml leupeptin/2 μg/ml antipain/0.5 mM PMSF) and the lysates cleared by centrifugation at 100,000×g for 45 min. Aliquots of lysates containing equal numbers of acid-precipitable counts were brought to 1 ml with IP buffer (lysis buffer lacking DTF) and immunoprecipitated with the ras-specific monoclonal antibody Y13-259 (Furth, M. E. et. al., J. Virol. 43, 294-304, (1982)). Following a 2 hour antibody incubation at 4° C., 200 μl of a 25% suspension of protein A-Sepharose coated with rabbit anti rat IgG was added for 45 min. The immunoprecipitates were washed four times with IP buffer ([…], pH 7.5/1 mM EDTA/1% Triton X-100.0.5% deoxycholate/0.1%/SDS/0.1 M NaCl) boiled in SDS-PAGE sample buffer and loaded on 13% acrylamide gels. When the dye front reached the bottom, the gel was fixed, soaked in Enlightening, dried and autoradiographed. The intensities of the bands corresponding to farnesylated and nonfarnesylated ras proteins were compared to determine the percent inhibition of farnesyl transfer to protein.

IC50 [1]	IC50 [2]	Structure (SMILES)
24000 nM		CCC(C)C(CN1CCCCC1C(=O)NC1CCOC1=O)NCC(N)CS [Compound 17, N-[2(S)-(2(R)-amino-3-mercaptopropylamino)-3-methylpentyl]-2(S)-pipecolyl-homoserine lactone]
10000 nM		CCC(C)C(NCC(N)CS)C(=O)N1CCCC1C(=O)NC1CCOC1=O [Compound 19, N-[2(R)-amino-3-mercaptopropyl]-isoleucyl-prolyl-homserine lactone]
4.2 nM		CC[C@@H]1CCN(C[C@@H](NC[C@@H](N)CS)[C@@H](C)CC)[C@@H]1C(=O)N[C@@H](CCSC)C(=O)O [Compound 8, N-[2(S)-(2(R)-amino-3-mercaptopropylamino)-3(S)-methylpentyl]-cis-3-ethyl-prolyl-methionine]
17 nM	10000 nM	CC[C@H](C)[C@@H](CN1CCC[C@H]1C(=O)N[C@@H](CCSC)C(=O)O)NC[C@@H](N)CS [Compound 4, N-[2(S)-(2(R)-amino-3-mercaptopropylamino)-3(S)-methylpentyl]-prolyl-methionine]
35 nM		CCC(C)C(CN1CCCC1C(=O)NC(CCS(C)(=O)=O)C(=O)O)NCC(N)CS [Compound 10, N-[2(S)-(2(R)-amino-3-mercaptopropylamino)-3(S)-methylpentyl]-prolyl-methionine sulfone]
45 nM		CC[C@H](C)[C@@H](CN1CCC[C@H]1C(=O)N[C@@H](CCO)C(=O)O)NC[C@@H](N)CS [Compound 16, N-[2(S)-(2(R)-amino-3-mercaptopropylamino)-3(S)-methylpentyl]-prolyl-homoserine]
100 nM	250 nM	CC[C@H](C)[C@@H](CN1CCC[C@H]1C(=O)N[C@@H](CCSC)C(=O)OC)NC[C@@H](N)CS [Compound 3, N-[2(S)-(2(R)-amino-3-mercaptopropylamino)-3(S)-methylpentyl]-prolyl-methionine methyl ester]
2300 nM	1000 nM	CC[C@@H]1CCN(C[C@@H](NC[C@@H](N)CS)[C@@H](C)CC)[C@@H]1C(=O)N[C@@H](CCSC)C(=O)OC [Compound 7, N-[2(S)-(2(R)-amino-3-mercaptopropylamino)-3(S)-methylpentyl]-cis-3-ethyl-prolyl-methionine methyl ester]
520 nM	< 1000 nM	CC[C@H]1CCN(C[C@@H](NC[C@@H](N)CS)[C@@H](C)CC)[C@@H]1C(=O)N[C@@H](CCSC)C(=O)OC [Compound 5, N-[2(S)-(2(R)-amino-3-mercaptopropylamino)-3(S)-methylpentyl]-trans-3-ethyl-prolyl-methionine methyl ester]
950 nM	> 10000 nM	CC[C@H](C)[C@@H](CN1CCC[C@H]1C(=O)N[C@@H](CCS(C)(=O)=O)C(=O)OC)NC[C@@H](N)CS [Compound 9, N-[2(S)-(2(R)-amino-3-mercaptopropylamino)-3(S)-methylpentyl]-prolyl-methionine sulfone methyl ester]
7.6 nM		CCC(C)[C@@H](CN1Cc2ccccc2C[C@H]1C(=O)N[C@@H](CCO)C(=O)O)NC[C@@H](N)CS (stereo partly drawn) [Compound 14, N-[N′-[2(S)-(2(R)-amino-3-mercaptopropylamino)-3(S)-methylpentyl]-1,2,3,4-tetrahydro-3(S)-isoquinolinecarboxyl]-homoserine]
0.39 nM		CCC(C)[C@@H](CN1Cc2ccccc2C[C@H]1C(=O)N[C@@H](CCSC)C(=O)O)NC[C@@H](N)CS (stereo partly drawn) [Compound 2, N-[N′-[2(S)-(2(R)-amino-3-mercaptopropylamino)-3(S)-methylpentyl]-1,2,3,4-tetrahydro-3(S)-isoquinolinecarboxyl]-methionine]
10000 nM		CCC(C)C(CN1CCCC1C(=O)NC(CCS(C)(=O)=O)C(=O)OC)N(C)CC(N)CS [Compound 25, N-[2(S)-(2(R)-amino-3-(mercaptopropyl)methylamino)-3(S)-methylpentyl]-prolyl-methionine sulfone methyl ester]
6 nM		CCC(C)C(CN1CCCC1C(=O)NC(CCSC)C(=O)O)N(C)CC(N)CS [Compound 24, N-[2(S)-(2(R)-amino-3-(mercaptopropyl)methylamino)-3(S)-methylpentyl]-prolyl-methionine]
680 nM	250 nM	CCC(C)[C@@H](CN1Cc2ccccc2C[C@H]1C(=O)N[C@@H](CCSC)C(=O)OC)NC[C@@H](N)CS (stereo partly drawn) [Compound 1, N-[N′-[2(S)-(2(R)-amino-3-mercaptopropylamino)-3(S)-methylpentyl]-1,2,3,4-tetrahydro-3(S)-isoquinolinecarboxyl]-methionine methyl ester]
340 nM		CCC(C)C(NCC(N)CS)C(=O)N1CCCCC1C(=O)NC(CCO)C(=O)O [Compound 22, N-[2(R)-amino-3-mercaptopropyl]-isoleucyl-2(S)-pipecolyl-homserine]
56 nM		CCC(C)C(CN1CCCC1C(=O)NC(CCS(C)(=O)=O)C(=O)O)N(C)CC(N)CS [Compound 26, N-[2(S)-(2(R)-amino-3-(mercaptopropyl)methylamino)-3(S)-methylpentyl]-prolyl-methionine sulfone]
1200 nM	< 1000 nM	CCC(C)C(CN1CCCC1C(=O)NC(CCSC)C(=O)OC)N(C)CC(N)CS [Compound 23, N-[2(S)-(2(R)-amino-3-(mercaptopropyl)methylamino)-3(S)-methylpentyl]-prolyl-methionine methyl ester]
10 nM		CC[C@H]1CCN(C[C@@H](NC[C@@H](N)CS)[C@@H](C)CC)[C@@H]1C(=O)N[C@@H](CCSC)C(=O)O [Compound 6, N-[2(S)-(2(R)-amino-3-mercaptopropylamino)-3(S)-methylpentyl]-trans-3-ethyl-prolyl-methionine]
1400 nM	50000 nM	CCC(C)C(CN1CCCC1C(=O)NC1CCOC1=O)NCC(N)CS [Compound 15, N-[2(S)-(2(R)-amino-3-mercaptopropylamino)-3(S)-methylpentyl]-prolyl-homoserine lactone]
350 nM		CCC(C)C(NCC(N)CS)C(=O)N1CCCC1C(=O)NC(CCO)C(=O)O [Compound 20, N-[2(R)-amino-3-mercaptopropyl]-isoleucyl-prolyl-homserine]
390 nM	> 10000 nM	CCC(C)[C@@H](CN1Cc2ccccc2C[C@H]1C(=O)N[C@H]1CCOC1=O)NC[C@@H](N)CS (stereo partly drawn) [Compound 13, N-[N′-[2(S)-(2(R)-amino-3-mercaptopropylamino)-3(S)-methylpentyl]-1,2,3,4-tetrahydro-3(S)-isoquinolinecarboxyl]-homoserine lactone]
25000 nM		CCC(C)C(NCC(N)CS)C(=O)N1CCCCC1C(=O)NC1CCOC1=O [Compound 21, N-[2(R)-amino-3-mercaptopropyl]-isoleucyl-2(S)-pipecolyl-homserine lactone]
